Measured values taken from article PMC12935919 (Frontiers in Pharmacology, 2026).
No end group written: not given here.

Assays:
[1] = test system: C2C12 cells; assay: RT-PCR / RT-qPCR of MRF genes; format: cell-based; conditions: Day 3; Myf6, MyoD, MyoG; normalized to GAPDH
Method: For RT-PCR, the PCR products were electrophoresed in 1.5% agarose gel containing EtBr at 100 V for 30 min and visualized using a ChemiDocTM XRS imaging system (Bio-Rad, Hercules, CA, USA). RT-qPCR was performed using SYBR Green PCR Master Mix (Applied Biosystems, Foster City, CA, USA) for quantitative analysis. Glyceraldehyde-3-phosphate dehydrogenase (GAPDH) was used as a housekeeping gene for normalization. Relative quantification (RQ) was calculated using the ΔΔCt method, and data were expressed as RQ values by comparing the threshold cycle (Ct) of each target gene to that of GAPDH. The linearity and amplification efficiency of the PCR reactions were evaluated using serial dilutions of cDNA, and all reactions were performed in triplicate. The primer sequences used were as follows: Myf5 forward ([NT]), Myf5 reverse ([NT]), Myf6 forward ([NT]), Myf6 reverse ([NT]), MyoD forward ([NT]), MyoD reverse ([NT]), MyoG forward ([NT]), MyoG reverse ([NT]).

[2] = test system: C2C12 cells; assay: Indirect immunofluorescence (MyoD, MYH3) and fusion index; format: cell-based
Method: Differentiated C2C12 cells cultured on coverslips were fixed at room temperature for 10 min with PBS containing 3.7% paraformaldehyde. Next, the samples were permeabilized with 0.25% Triton X-100/PBS for 10 min, blocked with 1% BSA/PBS, and incubated overnight with primary antibodies, anti-MyoD (Santa Cruz, sc-377460) and anti-MYH3 (Santa Cruz, sc-53091), followed by washing with PBS. The samples were then incubated for 1 h Alexa Fluor 488–conjugated goat anti-mouse IgG H&L (abcam, ab150113). Nuclei were stained with 4′,6-diamidino-2-phenylindole (DAPI; blue) for 5 min. The coverslips were mounted onto glass slides using an aqueous mounting solution (Biomeda, Foster City, CA, USA) and left to dry. Images were captured using a confocal laser-scanning microscope (LEICA, Wetzlar, Germany) at ×200 and ×400 magnifications for MYH3 and MyoD, respectively. The fluorescence intensity of each marker was quantified using ImageJ. For fusion index analysis, MYH3-stained images were used to quantify myotube formation by counting the number of DAPI-positive nuclei located within MYH3-positive multinucleated myotubes (defined as MYH3-positive cells containing ≥2 nuclei) and the total number of nuclei per field. Fusion index (%) was calculated as (nuclei within MYH3-positive multinucleated myotubes/total nuclei) × 100. Fusion index was calculated from multiple randomly selected fields captured under identical imaging settings and quantified in ImageJ.

[3] = test system: patients with muscle atrophy (ICD-10-CM code: M62.5); assay: Clinical trial: muscle mass by DEXA; format: in vivo, human
Method: (§1) The study was conducted at Biosite Research Private Limited (Shanthipura, India) under the New Drugs and Clinical Trials Rules (2019) issued by CDSCO (Ministry of Health and Family Welfare, Government of India), and in compliance with GCP, applicable local regulatory requirements, the Declaration of Helsinki ([…]), ICMR guidelines (2017), and ICH-GCP E6 (R2). Ethical approval was obtained from the Excel Hospital Institutional Ethics Committee (ECR/1670/Inst/TG/2022) and ethics committees of other participating centers, and the trial was prospectively registered (CTRI/2024/01/061919). All participants provided written informed consent prior to any study procedures. […] Efficacy endpoints were evaluated as changes from baseline to Week 12; efficacy analyses were conducted in the per-protocol population, and safety analyses included all randomized participants who received at least one dose of study product (Supplementary Figure S2). […] Continuous variables were summarized as N, mean (SD), median, minimum, and maximum, and categorical variables as n (%), with percentages calculated as n/N × 100. Changes from baseline to Week 12 in DEXA-assessed muscle mass, 6-m walk test, and handgrip strength were analyzed using ANCOVA, adjusting for the corresponding baseline value. […]

[4] = test system: patients with muscle atrophy (ICD-10-CM code: M62.5); assay: Clinical trial: 6-m walk test; format: in vivo, human
Method: as §1

[5] = test system: patients with muscle atrophy (ICD-10-CM code: M62.5); assay: Clinical trial: serum biomarkers; format: in vivo, human
Method: The study was conducted at Biosite Research Private Limited (Shanthipura, India) under the New Drugs and Clinical Trials Rules (2019) issued by CDSCO (Ministry of Health and Family Welfare, Government of India), and in compliance with GCP, applicable local regulatory requirements, the Declaration of Helsinki ([…]), ICMR guidelines (2017), and ICH-GCP E6 (R2). Ethical approval was obtained from the Excel Hospital Institutional Ethics Committee (ECR/1670/Inst/TG/2022) and ethics committees of other participating centers, and the trial was prospectively registered (CTRI/2024/01/061919). All participants provided written informed consent prior to any study procedures. Key eligibility criteria included adults aged ≥18 years with low muscle mass by DEXA (men: <7.0 kg/m^2; women: <5.4 kg/m^2) and either low handgrip strength (men: <28 kg; women: <18 kg) or low physical performance (6-m walk speed <1.0 m/s). Major exclusion criteria included uncontrolled systemic disease, musculoskeletal or neurological disorders, recent anabolic steroid use, and concomitant medications known to affect protein metabolism; full inclusion and exclusion criteria are provided in Supplementary Table S1. Of 89 patients screened, seven were screen failures and two withdrew prior to randomization; 80 eligible participants were enrolled and proceeded to the baseline/randomization visit (mean age 38.83 ± 9.91 years; range 23-69). […] The study was double-blind; participants, investigators, and study staff were unaware of treatment allocation throughout the trial. […] Efficacy endpoints were evaluated as changes from baseline to Week 12; efficacy analyses were conducted in the per-protocol population, and safety analyses included all randomized participants who received at least one dose of study product (Supplementary Figure S2). Of 80 randomized participants, 75 completed the study. Statistical analyses were performed using SAS (version 9.4; SAS Institute Inc., Cary, NC, USA). Continuous variables were summarized as N, mean (SD), median, minimum, and maximum, and categorical variables as n (%), with percentages calculated as n/N × 100. Changes from baseline to Week 12 in DEXA-assessed muscle mass, 6-m walk test, and handgrip strength were analyzed using ANCOVA, adjusting for the corresponding baseline value. Least-squares means (LSMs), 95% confidence intervals, and two-sided p-values were reported, with p < 0.05 considered statistically significant.

[6] = Day 3, 100 μM, fluorescence intensity, mean ± SD
[7] = Week 12, 200 mg/day, ANCOVA, p <0.01

Substance: EAEYEHL-OH [Myoki]
- MRF gene expression (mRNA) [1]: significant increase
- increase in MYH3 expression compared to the control [2, 6]: 191% ± 10.66%
- increase in MyoD expression compared to the control [2, 6]: 190% ± 46.28%
- increase in MYH3 fluorescence staining compared to the control ([2]; Day 6): 153%
- Lean muscle mass, change from baseline to Week 12 (LS mean) ([3]; Myoki + arginine + maltodextrin, 200 mg peptide/day oral, N = 38, 95% CI (736.90 to 1124.7), placebo 225): 930.8 g
- Lean muscle mass, difference between placebo and treatment (95% CI) [3, 7]: 705.8 g
- Time to complete 6-meter walk test (TTC-6mWT), change from baseline to Week 12 (LS mean) ([4]; 200 mg peptide/day oral, N = 38, 95% CI (−1.36 to −0.87), placebo −0.77): -1.12 s
- Time to complete 6-meter walk test, difference between placebo and treatment (95% CI) [4, 7]: -0.34 s
- IGF-1, change from baseline to Week 12 (LS mean) ([5]; 200 mg peptide/day oral, N = 38, 95% CI (19.49 to 43.40), placebo 13.51): 31.44 ng/mL
- TNF-alpha, change from baseline to Week 12 (LS mean) ([5]; 200 mg peptide/day oral, N = 38, 95% CI (−1.54 to 9.48), placebo 4.3): 3.97 pg/mL
- Creatine kinase (CK-MB), change from baseline to Week 12 (LS mean) ([5]; 200 mg peptide/day oral, N = 38, 95% CI (−2.13 to 1.04), placebo 3.41): -0.54 ng/mL
- IL-6, change from baseline to Week 12 (LS mean) ([5]; 200 mg peptide/day oral, N = 38, 95% CI (−2.59 to 2.67), placebo 1.31): 0.04 pg/mL
- Aspartate aminotransferase, change from baseline to Week 12 (LS mean) ([5]; 200 mg peptide/day oral, N = 38, 95% CI (−6.14 to 0.49), placebo 2.57): −2.83 IU/L
- Sex hormones (Estrogen), change from baseline to Week 12 (LS mean) ([5]; 200 mg peptide/day oral, N = 38, 95% CI (−8.11 to 3.36), placebo −1.98): -2.37 pg/mL
- Myoglobin, change from baseline to Week 12 (LS mean) ([5]; 200 mg peptide/day oral, N = 38, 95% CI (−10.33 to −2.56), placebo 8.15): -6.45 ng/mL
- Sex hormones (testosterone), change from baseline to Week 12 (LS mean) ([5]; 200 mg peptide/day oral, N = 38, 95% CI (−21.09 to 114.17), placebo −29.9): 46.54 pg/mL
- Aspartate aminotransferase, difference between placebo and treatment (95% CI) ([5]; Week 12, 200 mg/day, p 0.025): −5.39 IU/L
- IGF-1, difference between placebo and treatment (95% CI) ([5]; Week 12, 200 mg/day, p 0.038): 17.93 ng/mL
- Creatine kinase (CK-MB), difference between placebo and treatment (95% CI) ([5]; Week 12, 200 mg/day, p <0.01): -3.95 ng/mL
- Myoglobin, difference between placebo and treatment (95% CI) ([5]; Week 12, 200 mg/day, p <0.01): -14.6 ng/mL
